# Measured values taken from patent publication EP2324824A2, “Medical application of lipid derivatives of dopamine” (Instytut Medycyny Doswiadczalnej I Klinicznej, priority 2009, dated 2011).
# Experiments:
# [1] = tested on: animal model of Parkinson's disease; test: Muscle rigidity in reserpine + α-methyl-tyrosine model of Parkinson's disease (EMG); format: in vivo, rats; conditions: 10 mg/kg
# Experimental: Symptoms of the Parkinson's disease, particularly muscle rigidity during flexion and extension movements in the ankle joint, were induced with reserpine (2.5 mg/kg, i.p.) and α-methyl-tyrosine (α-MT, 250 mg/kg, i.p.) administered at a 16-h interval. Afterwards, 3'-O-methyl-N-oleoyl-dopamine (O-Me-OLDA) was administered at a dose of 10 mg/kg and the muscular tone was measured using electromyographic (EMG) techniques. The control groups consisted of a) only vehiculum-treated animals in which no symptoms of Parkinson's disease were induced (control), b) animals who received only 3'-O-methyl-N-oleoyl-dopamine (O-Me-OLDA) and c) animals in which symptoms of Parkinson's disease were induced (reserpine + α-MT), but no other treatment was introduced.
# [2] = tested on: awake Wistar rats; test: Respiration in normoxia and hypoxia in the awake rat (plethysmographic chamber); format: in vivo; conditions: for Minute lung ventilation (peak respiratory response): after haloperidol 0.9 mg/kg i.p. and N-oleoyl-dopamine 40 mg/kg i.p.
# Experimental: The study was performed in awake Wistar rats in a computerized plethysmographic chamber for small rodents. Respiratory frequency, tidal volume and pulmonary ventilation were measured. The experimental protocol included recordings in normoxia (breathing with atmospheric air), two levels of hypoxic stimulus (8% and 12% O2 in N2), intraperitoneal (i.p.) administration of N-oleoyl-dopamine (in a dose of 40 mg/kg) and repeated recordings for both normoxic and hypoxic states. Additionally, further experiments with the dopamine receptor antagonist haloperidol (in a dose of 0.9 mg/kg, i.p.) were performed. In those experiments, haloperidol was administered prior to N-oleoyl-dopamine and the recordings according the above-mentioned protocol were repeated. […]
# [3] = target: TRPV1 vanilloid receptors (Homo sapiens, UniProt Q8NER1); conditions: mentioned in the literature; cited from earlier work
# Sequence of TRPV1 vanilloid receptors (Q8NER1 whole entry): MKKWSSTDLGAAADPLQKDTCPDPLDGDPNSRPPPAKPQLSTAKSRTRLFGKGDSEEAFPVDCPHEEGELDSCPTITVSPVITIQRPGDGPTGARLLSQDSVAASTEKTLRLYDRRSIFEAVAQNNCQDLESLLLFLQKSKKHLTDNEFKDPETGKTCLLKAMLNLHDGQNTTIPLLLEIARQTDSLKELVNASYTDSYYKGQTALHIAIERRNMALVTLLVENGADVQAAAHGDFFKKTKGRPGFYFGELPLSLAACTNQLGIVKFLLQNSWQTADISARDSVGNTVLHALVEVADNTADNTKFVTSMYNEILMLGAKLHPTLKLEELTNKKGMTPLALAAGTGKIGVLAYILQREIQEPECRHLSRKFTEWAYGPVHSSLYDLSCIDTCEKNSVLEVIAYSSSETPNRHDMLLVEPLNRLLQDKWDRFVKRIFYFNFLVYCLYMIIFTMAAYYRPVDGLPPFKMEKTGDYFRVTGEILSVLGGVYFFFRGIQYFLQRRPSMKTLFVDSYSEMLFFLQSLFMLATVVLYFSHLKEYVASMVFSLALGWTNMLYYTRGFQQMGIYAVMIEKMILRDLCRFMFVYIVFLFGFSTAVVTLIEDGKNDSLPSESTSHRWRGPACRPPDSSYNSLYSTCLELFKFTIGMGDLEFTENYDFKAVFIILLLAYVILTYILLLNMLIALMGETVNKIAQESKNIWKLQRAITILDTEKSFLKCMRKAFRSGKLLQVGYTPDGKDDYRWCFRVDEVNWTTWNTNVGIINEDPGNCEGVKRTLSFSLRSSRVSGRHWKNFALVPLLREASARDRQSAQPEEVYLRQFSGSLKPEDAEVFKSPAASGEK
# [4] = tested on: anesthetized, paralyzed and artificially ventilated Wistar rats; test: Respiratory response to hypoxia in the anesthetized rat (integrated phrenic nerve activity); format: in vivo; conditions: for peak respiratory response in relation to the starting-point values: substance alone: N-oleoyl-dopamine 20 mg/kg, haloperidol 3 mg/kg, domperidone 0.3 mg/kg; for effect on respiration in the second inhibitory phase of the response to hypoxia: substance alone, 14% and 11 % hypoxia
# Experimental: The study was performed in anesthetized, paralyzed and artificially ventilated Wistar rats. During the experiments, the integrated activity of the phrenic nerve was recorded. This activity reflects the frequency and tidal volume; their product represents the index of minute lung ventilation. The experimental protocol consisted of control recordings for two levels of the hypoxic stimulus: 14% and 11 % O2 in N2. Afterwards, N-oleoyl-dopamine in a dose of 20 mg/kg was given and the recordings were repeated. Additionally, experiments with two dopamine receptor antagonists were performed: first, with the penetrating through the blood-brain barrier D2 dopamine receptor antagonist haloperidol and second, with the non-penetrating through the blood-brain-barrier domperidone. In these studies, after the control recordings, haloperidol (in a dose of 3 mg/kg) or domperidone (in a dose of 0.3 mg/kg) were administered and the recordings repeated. Then, N-oleoyl-dopamine was given and the recordings were repeated.
# [5] = tested on: rat model of Parkinson's disease; conditions: cited from earlier work
# [6] = tested on: rat; conditions: cited from earlier work
# [7] = in vitro conditions; cited from earlier work
# [8] = tested on: brain; conditions: after injection into the carotid artery; cited from earlier work
# [9] = tested on: rat brain membrane system; format: in vivo, Wistar rats; conditions: 20 mg/kg intraperitoneal
# Experimental: N-oleoyl-dopamine was administered to Wistar rats at a dose of 20 mg/kg. After 1, 2, 3 or 24 hours the rat was sacrificed and the brain was resected. From the tissue, the whole lipid fraction, containing all lipids of the brain and the membrane fraction of the rat brain were obtained. Total lipids were obtained by homogenization of the brain in a mixture of chloroform and methanol 2:1 followed by an extraction of the water-soluble fractions and evaporation of the solvent. The membrane phase was obtained according to Xu et al. (Xu, 1998) and extracted with chloroform to obtain membrane lipids. All obtained samples were analyzed by the thin layer chromatography TLC on silica gel plates 60 using a mixture of chloroform and methanol 95:5 as the mobile phase and N-oleoyl-dopamine as the standard. The Retention Factor (Rf) for the N-oleoyl-dopamine standard was equal to 0.24-0.26. At the same level (the same Rf = […]) there were bands corresponding to N-oleoyl-dopamine in the biological samples, that is after systemic N-oleoyl-dopamine injection, but not in the control samples obtained with no N-oleoyl-dopamine injection.
# [10] = 8% hypoxia, 40 mg/kg i.p., awake rat
# [11] = 8% hypoxia, after 40 mg/kg i.p., awake rat
# [12] = normoxia, 40 mg/kg i.p., awake rat
# [13] = N-oleoyl-dopamine 20 mg/kg given after domperidone 0.3 mg/kg
# [14] = N-oleoyl-dopamine 20 mg/kg given after haloperidol 3 mg/kg
smiles,measurement,setting,value
CCCCCCCC/C=C\CCCCCCCC(=O)NCCc1ccc(O)c(OC)c1 [3'-O-methyl-N-oleoyl-dopamine],muscle rigidity,[1]; rats treated with reserpine 2.5 mg/kg i.p. + α-MT 250 mg/kg i.p.,abolished muscle rigidity
same,muscle tone in comparison to control recordings,"[1]; substance alone, no Parkinson symptoms induced",did not change the muscle tone
same,muscle tone (force needed for flexion and extension of the ankle joint),"[1]; three-fold elevated level of muscle tone by reserpine, Fig.1",decreases nearly down to the control level
same,reduction of peak respiratory response,[2]; [10],19%
same,peak respiratory response,[2]; [11],1939 ±255 ml/min/kg body weight
same,decrease of resting ventilation during breathing with atmospheric oxygen,[2]; [12],23%
same,resting ventilation during breathing with atmospheric oxygen,"[2]; normoxia, after 40 mg/kg i.p., awake rat",779.7 ±148.7 ml/min/kg body weight
same,action towards TRPV1 vanilloid receptors,[3],agonistic action
CCCCCCCC/C=C\CCCCCCCC(=O)NCCc1ccc(O)c(O)c1 [N-oleoyl-dopamine],peak respiratory response in relation to the starting-point values,[4]; 11 % hypoxia (O2 in N2),38 ±9%
same,peak respiratory response in relation to the starting-point values,[4]; 14% hypoxia (O2 in N2),18 ±10%
same,effect on respiration in the inhibitory phase,[4]; [13],still diminished the respiration
same,effect on response to hypoxia in the stimulatory phase,[4]; [13],did not change the response to hypoxia
same,effect on respiratory response in the first stimulatory phase,[4]; [14],did not restore the respiratory response
same,effect on respiratory response in the second inhibitory phase,[4]; [14],still diminished it
same,effect on respiration in the second inhibitory phase of the response to hypoxia,[4],reduced the respiratory response to hypoxia
same,muscle rigidity,[5],diminishes muscle rigidity
same,locomotor activity,[6],increases the locomotor activity
same,reduction of peak respiratory response,[2]; [10],41%
same,peak respiratory response,[2]; [11],1338.3 ±49.5 ml/min/kg body weight
same,Minute lung ventilation (peak respiratory response),[2]; 8% hypoxia,1947.3 ±66.5 ml/min/kg body weight
same,reduction of peak respiratory response,"[2]; 12% hypoxia, 40 mg/kg i.p., awake rat",36%
same,peak respiratory response,"[2]; 12% hypoxia, after 40 mg/kg i.p., awake rat",856.6 ±73.7 ml/min/kg body weight
same,Minute lung ventilation (peak respiratory response),[2]; 12% hypoxia,1484.0 ±92.3 ml/min/kg body weight
same,decrease in respiratory frequency,[2]; [12],23%
same,decrease of resting ventilation during breathing with atmospheric oxygen,[2]; [12],33%
same,stability,[7],highly stable
same,penetration into the brain,[8],ability to penetrate into the brain
same,action towards TRPV1 vanilloid receptors,[3],agonistic action
same,penetration into the membrane system of the brain,"[9]; brain taken after 1, 2, 3 or 24 hours",penetrates into the membrane system of the rat brain
same,time staying unchanged bound to the brain membrane system,[9]; rat brain,at least 24 hours
"O=c1[nH]c2ccccc2n1CCCN1CCC(n2c(=O)[nH]c3cc(Cl)ccc32)CC1 [domperidone, reference compound]",peak respiratory response in relation to the starting-point values,[4]; 11 % hypoxia (O2 in N2),26 ±5%
same,peak respiratory response in relation to the starting-point values,[4]; 14% hypoxia (O2 in N2),21 ±5%
"O=C(CCCN1CCC(O)(c2ccc(Cl)cc2)CC1)c1ccc(F)cc1 [haloperidol, reference compound]",peak respiratory response in relation to the starting-point values,[4]; 11 % hypoxia (O2 in N2),22 ±5%
same,peak respiratory response in relation to the starting-point values,[4]; 14% hypoxia (O2 in N2),18 ±3%
same,effect on respiration in the second inhibitory phase of the response to hypoxia,[4],diminished the respiration
